Reference: publication PMC7026418, “The kinase polypharmacology landscape of clinical PARP inhibitors” (Scientific Reports, 2020)
Read-outs that look alike come from different tables or passages of the source.

Legend:
Experiment in all cases: biochemical
Design in all cases: DiscoveRx KINOMEscan active site-directed competition binding; percent of control kinase bound to immobilised ligand
DDR1 = DDR1 (Homo sapiens, UniProt Q08345)
NDR2 = target: T1, NDR2 (Homo sapiens, UniProt Q9Y2H1)
T1 construct: gene STK38L

DAPK1 = DAPK1 (Homo sapiens, UniProt P53355)
TGFBR1 = target: T2, TGFBR1 (Homo sapiens, UniProt P36897)
T2 sequence (P36897 1-503): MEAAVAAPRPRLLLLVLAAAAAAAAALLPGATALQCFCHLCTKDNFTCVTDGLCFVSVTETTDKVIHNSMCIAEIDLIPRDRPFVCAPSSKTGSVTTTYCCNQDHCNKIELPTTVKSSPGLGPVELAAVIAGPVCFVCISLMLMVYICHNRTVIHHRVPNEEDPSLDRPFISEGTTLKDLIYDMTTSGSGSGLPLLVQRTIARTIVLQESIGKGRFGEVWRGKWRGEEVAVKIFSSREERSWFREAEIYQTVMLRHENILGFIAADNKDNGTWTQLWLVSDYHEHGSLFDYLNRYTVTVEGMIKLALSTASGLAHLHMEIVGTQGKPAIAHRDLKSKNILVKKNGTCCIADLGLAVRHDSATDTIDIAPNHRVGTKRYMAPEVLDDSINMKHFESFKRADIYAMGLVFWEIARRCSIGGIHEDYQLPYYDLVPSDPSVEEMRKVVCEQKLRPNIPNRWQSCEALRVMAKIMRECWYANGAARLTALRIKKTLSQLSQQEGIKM

MRCKB = target: T3, MRCKB (Homo sapiens, UniProt Q9Y5S2)
T3 construct: gene CDC42BPB

FGFR1 = FGFR1 (Homo sapiens, UniProt P11362)
EPHB2 = target: T4, EPHB2 (Homo sapiens, UniProt P29323)
T4 sequence (P29323 1-1055): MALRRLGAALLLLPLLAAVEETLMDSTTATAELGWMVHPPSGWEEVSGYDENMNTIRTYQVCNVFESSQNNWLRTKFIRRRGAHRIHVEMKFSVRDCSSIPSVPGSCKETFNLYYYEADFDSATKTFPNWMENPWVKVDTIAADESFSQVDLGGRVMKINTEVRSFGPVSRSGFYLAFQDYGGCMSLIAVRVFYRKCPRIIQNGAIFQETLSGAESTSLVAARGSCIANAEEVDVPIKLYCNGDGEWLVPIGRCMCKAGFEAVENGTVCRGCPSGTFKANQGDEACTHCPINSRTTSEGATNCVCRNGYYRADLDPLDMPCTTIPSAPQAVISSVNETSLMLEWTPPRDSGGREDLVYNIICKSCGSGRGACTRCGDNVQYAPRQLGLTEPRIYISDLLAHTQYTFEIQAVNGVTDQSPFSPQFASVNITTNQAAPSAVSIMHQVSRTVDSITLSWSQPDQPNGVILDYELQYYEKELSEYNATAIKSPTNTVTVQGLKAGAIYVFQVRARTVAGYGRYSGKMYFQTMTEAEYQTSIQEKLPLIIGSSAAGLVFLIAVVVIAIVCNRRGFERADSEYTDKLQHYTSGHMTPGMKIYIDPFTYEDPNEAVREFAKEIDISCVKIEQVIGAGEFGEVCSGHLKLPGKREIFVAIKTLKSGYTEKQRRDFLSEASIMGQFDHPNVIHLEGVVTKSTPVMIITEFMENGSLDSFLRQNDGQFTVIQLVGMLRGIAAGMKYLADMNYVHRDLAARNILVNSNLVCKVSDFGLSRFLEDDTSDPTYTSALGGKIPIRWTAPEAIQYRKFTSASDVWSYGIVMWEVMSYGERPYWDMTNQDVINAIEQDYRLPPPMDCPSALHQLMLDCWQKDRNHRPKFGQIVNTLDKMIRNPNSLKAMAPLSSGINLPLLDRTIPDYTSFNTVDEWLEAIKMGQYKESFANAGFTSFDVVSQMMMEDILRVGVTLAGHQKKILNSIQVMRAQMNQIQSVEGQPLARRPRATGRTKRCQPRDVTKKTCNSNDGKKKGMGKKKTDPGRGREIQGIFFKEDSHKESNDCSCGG

CAMKK1 = CAMKK1 (Homo sapiens, UniProt Q8N5S9)
ROCK2 = ROCK2 (Homo sapiens, UniProt O75116)
[1] = read-out: Talazoparib (BMN 673) / %Ctrl @ 10000nM
[2] = read-out: Olaparib / %Ctrl @ 10000nM
[3] = read-out: Rucaparib / %Ctrl @ 10000nM, binding competition, % of control
[4] = read-out: Niraparib (MK-4827) / %Ctrl @ 10000nM

Chain of DAPK1 (P53355 whole entry): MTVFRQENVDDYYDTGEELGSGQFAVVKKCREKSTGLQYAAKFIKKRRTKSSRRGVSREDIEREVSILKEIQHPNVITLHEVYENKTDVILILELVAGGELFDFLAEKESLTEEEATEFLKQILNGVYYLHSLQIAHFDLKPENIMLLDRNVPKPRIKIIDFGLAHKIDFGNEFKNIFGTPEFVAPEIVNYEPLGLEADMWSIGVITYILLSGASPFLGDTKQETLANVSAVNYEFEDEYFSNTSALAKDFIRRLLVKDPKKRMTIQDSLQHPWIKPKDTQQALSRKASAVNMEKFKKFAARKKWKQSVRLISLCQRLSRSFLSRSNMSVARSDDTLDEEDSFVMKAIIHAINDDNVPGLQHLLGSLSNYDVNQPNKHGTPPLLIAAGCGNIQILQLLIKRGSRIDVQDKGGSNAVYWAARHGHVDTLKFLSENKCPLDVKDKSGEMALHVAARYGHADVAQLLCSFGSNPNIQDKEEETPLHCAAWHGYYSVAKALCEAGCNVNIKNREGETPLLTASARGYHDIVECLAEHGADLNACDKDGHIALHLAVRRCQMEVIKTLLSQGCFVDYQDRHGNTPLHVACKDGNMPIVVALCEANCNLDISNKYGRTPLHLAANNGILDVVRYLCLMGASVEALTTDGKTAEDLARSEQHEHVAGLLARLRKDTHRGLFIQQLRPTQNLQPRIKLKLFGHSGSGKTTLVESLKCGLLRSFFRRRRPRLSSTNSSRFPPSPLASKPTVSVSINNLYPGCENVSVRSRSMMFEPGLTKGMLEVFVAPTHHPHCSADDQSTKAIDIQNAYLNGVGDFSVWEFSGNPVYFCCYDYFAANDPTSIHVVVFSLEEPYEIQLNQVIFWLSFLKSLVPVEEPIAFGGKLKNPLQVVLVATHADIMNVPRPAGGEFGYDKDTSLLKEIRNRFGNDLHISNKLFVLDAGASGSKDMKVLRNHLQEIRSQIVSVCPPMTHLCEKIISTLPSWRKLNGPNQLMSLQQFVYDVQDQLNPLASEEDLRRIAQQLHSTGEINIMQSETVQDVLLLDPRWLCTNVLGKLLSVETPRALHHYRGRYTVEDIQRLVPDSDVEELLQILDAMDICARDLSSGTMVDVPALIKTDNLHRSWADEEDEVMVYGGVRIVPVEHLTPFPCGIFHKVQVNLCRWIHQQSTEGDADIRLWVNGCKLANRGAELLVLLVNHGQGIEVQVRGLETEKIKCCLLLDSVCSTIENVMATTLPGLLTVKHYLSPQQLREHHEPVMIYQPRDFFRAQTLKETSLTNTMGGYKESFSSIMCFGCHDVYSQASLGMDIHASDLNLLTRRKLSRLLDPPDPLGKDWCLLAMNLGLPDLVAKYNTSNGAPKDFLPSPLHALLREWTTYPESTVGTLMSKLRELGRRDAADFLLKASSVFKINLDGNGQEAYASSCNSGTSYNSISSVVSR
T1 sequence (Q9Y2H1 whole entry): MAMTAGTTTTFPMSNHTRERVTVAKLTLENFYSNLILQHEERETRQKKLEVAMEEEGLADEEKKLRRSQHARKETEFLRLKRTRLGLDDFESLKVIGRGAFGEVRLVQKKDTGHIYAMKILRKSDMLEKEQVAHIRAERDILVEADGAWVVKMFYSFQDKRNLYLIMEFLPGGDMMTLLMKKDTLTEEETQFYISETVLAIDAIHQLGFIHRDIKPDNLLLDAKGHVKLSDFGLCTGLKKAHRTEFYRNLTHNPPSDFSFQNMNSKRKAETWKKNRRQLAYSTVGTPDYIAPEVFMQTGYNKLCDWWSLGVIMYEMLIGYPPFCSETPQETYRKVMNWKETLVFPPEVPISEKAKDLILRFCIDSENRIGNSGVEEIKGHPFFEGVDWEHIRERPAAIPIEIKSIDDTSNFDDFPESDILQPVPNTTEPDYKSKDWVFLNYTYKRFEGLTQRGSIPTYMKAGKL
Chain of CAMKK1 (Q8N5S9 whole entry): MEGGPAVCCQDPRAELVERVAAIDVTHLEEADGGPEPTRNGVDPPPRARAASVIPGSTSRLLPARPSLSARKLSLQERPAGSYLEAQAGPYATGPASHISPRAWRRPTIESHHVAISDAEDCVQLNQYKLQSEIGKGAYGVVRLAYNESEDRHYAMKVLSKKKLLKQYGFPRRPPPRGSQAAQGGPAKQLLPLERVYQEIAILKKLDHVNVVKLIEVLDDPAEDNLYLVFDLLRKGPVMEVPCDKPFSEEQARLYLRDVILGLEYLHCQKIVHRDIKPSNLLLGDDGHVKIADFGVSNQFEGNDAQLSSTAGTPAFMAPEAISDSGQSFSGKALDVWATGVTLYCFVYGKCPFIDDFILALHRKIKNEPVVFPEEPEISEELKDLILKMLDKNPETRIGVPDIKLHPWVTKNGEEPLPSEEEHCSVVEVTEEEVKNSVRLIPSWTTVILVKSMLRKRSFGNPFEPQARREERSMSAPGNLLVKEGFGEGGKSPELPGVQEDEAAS
Chain of FGFR1 (P11362 whole entry): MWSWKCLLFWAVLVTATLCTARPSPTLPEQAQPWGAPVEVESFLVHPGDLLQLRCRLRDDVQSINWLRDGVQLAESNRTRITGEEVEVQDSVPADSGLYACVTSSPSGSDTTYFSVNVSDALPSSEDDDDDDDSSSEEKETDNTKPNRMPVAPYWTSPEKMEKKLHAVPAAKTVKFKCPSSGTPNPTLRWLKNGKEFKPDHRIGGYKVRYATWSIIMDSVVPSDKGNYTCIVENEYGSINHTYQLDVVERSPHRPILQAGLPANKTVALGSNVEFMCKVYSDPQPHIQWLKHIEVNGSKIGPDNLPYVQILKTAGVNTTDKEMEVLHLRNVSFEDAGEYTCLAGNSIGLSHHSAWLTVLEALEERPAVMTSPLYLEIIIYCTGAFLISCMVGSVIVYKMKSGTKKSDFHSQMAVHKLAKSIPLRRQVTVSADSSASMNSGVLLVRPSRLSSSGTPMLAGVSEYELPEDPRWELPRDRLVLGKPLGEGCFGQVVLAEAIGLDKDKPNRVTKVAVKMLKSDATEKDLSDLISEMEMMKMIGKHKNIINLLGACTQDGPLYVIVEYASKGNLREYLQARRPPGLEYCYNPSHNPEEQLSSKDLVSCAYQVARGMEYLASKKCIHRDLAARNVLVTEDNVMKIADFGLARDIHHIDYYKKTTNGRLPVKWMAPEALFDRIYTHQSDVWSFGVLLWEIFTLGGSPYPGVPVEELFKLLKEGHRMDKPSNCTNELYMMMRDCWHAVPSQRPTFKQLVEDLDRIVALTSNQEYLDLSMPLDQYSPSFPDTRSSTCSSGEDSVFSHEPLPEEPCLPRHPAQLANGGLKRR
Chain of ROCK2 (O75116 whole entry): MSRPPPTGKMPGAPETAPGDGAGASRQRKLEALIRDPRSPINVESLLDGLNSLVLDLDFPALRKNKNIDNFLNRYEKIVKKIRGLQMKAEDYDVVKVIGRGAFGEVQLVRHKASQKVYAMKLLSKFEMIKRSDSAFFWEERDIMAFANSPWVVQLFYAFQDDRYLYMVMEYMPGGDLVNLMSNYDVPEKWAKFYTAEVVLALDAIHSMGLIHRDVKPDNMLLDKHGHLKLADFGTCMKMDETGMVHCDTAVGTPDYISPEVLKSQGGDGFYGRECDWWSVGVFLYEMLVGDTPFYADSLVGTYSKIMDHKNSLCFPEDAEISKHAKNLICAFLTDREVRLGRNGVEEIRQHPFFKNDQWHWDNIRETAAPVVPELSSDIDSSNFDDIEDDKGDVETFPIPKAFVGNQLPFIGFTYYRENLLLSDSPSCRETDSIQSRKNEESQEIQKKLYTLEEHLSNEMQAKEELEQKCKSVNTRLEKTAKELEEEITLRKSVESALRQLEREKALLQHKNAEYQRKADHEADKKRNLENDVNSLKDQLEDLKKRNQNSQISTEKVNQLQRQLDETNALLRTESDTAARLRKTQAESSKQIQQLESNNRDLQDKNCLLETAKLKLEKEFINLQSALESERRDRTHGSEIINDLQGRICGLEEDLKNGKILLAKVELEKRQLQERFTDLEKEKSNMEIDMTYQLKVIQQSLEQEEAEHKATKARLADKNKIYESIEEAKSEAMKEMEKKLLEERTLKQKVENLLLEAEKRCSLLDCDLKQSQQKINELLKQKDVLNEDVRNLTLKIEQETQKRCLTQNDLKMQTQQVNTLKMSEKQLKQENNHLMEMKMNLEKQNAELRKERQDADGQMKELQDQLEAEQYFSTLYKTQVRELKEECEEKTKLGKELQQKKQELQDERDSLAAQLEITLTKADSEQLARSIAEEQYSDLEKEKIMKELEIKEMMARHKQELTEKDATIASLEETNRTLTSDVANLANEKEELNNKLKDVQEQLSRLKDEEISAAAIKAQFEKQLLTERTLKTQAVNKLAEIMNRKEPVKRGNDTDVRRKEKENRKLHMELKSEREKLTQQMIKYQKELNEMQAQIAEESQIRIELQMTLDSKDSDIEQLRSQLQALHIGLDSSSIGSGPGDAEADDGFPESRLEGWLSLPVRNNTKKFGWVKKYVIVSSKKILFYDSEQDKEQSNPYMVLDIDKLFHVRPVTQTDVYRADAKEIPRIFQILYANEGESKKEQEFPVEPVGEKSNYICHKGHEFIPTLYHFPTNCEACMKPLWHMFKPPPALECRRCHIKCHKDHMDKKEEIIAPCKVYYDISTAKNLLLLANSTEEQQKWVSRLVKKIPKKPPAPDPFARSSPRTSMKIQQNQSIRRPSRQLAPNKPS

## Cn1ncnc1[C@H]1c2n[nH]c(=O)c3cc(F)cc(c23)N[C@@H]1c1ccc(F)cc1 [Talazoparib]
DDR1; [1]
  percent of control binding at 10 µM: 84%
NDR2; [1]
  percent of control binding at 10 µM: 83%
DAPK1; [1]
  percent of control binding at 10 µM: 89%
TGFBR1; [1]
  percent of control binding at 10 µM: 100%
MRCKB; [1]
  percent of control binding at 10 µM: 100%
FGFR1; [1]
  percent of control binding at 10 µM: 94%
EPHB2; [1]
  percent of control binding at 10 µM: 89%
CAMKK1; [1]
  percent of control binding at 10 µM: 97%
ROCK2; [1]
  percent of control binding at 10 µM: 100%

## O=C(c1cc(Cc2n[nH]c(=O)c3ccccc23)ccc1F)N1CCN(C(=O)C2CC2)CC1 [Olaparib]
DDR1; [2]
  percent of control binding at 10 µM: 77%
NDR2; [2]
  percent of control binding at 10 µM: 97%
DAPK1; [2]
  percent of control binding at 10 µM: 87%
TGFBR1; [2]
  percent of control binding at 10 µM: 93%
MRCKB; [2]
  percent of control binding at 10 µM: 100%
FGFR1; [2]
  percent of control binding at 10 µM: 100%
EPHB2; [2]
  percent of control binding at 10 µM: 95%
CAMKK1; [2]
  percent of control binding at 10 µM: 88%
ROCK2; [2]
  percent of control binding at 10 µM: 75%

## CNCc1ccc(-c2[nH]c3cc(F)cc4c3c2CCNC4=O)cc1 [Rucaparib]
DDR1; [3]
  percent of control binding at 10 µM: 96%
NDR2; [3]
  percent of control binding at 10 µM: 86%
DAPK1; [3]
  percent of control binding at 10 µM: 29%
TGFBR1; [3]
  percent of control binding at 10 µM: 98%
MRCKB; [3]
  percent of control binding at 10 µM: 100%
FGFR1; [3]
  percent of control binding at 10 µM: 91%
EPHB2; [3]
  percent of control binding at 10 µM: 91%
CAMKK1; [3]
  percent of control binding at 10 µM: 66%
ROCK2; [3]
  percent of control binding at 10 µM: 85%

## NC(=O)c1cccc2cn(-c3ccc([C@@H]4CCCNC4)cc3)nc12 [Niraparib]
DDR1; [4]
  percent of control binding at 10 µM: 85%
NDR2; [4]
  percent of control binding at 10 µM: 77%
DAPK1; [4]
  percent of control binding at 10 µM: 77%
TGFBR1; [4]
  percent of control binding at 10 µM: 98%
MRCKB; [4]
  percent of control binding at 10 µM: 98%
FGFR1; [4]
  percent of control binding at 10 µM: 88%
EPHB2; [4]
  percent of control binding at 10 µM: 75%
CAMKK1; [4]
  percent of control binding at 10 µM: 88%
ROCK2; [4]
  percent of control binding at 10 µM: 73%
